The test system of series [1] is Aiptasia Mutabilis acontial filament nematocysts. The settings on record: 2 mM in seawater medium; cited from earlier work.
Series [2] in a line: Water resistance of ointment on virgin wool squares in seawater (atomic absorption). The conditions noted are these: 80 RPM. It counts as physicochemical. Here is the method:
To determine the water resistance of an ointment containing 50 mM LaCl3, prepared according the above-described conditions, three squares (10×10 CM) of virgin wool, keratin protein that is used as a substrate to approximate human skin, were used. Each square of wool was treated with 1-gram of ointment containing 50 mM LaCl3. After 20 minutes of drying at room temperature, the squares of wool were immersed in one liter of seawater and agitated (80 RPM) for 30 minutes, 60 minutes, or 120 minutes. The ointment was extracted separately from each square of wool with 50 ml 1% Tritox100 under boiling. The Lanthanum chloride concentration of each sample of extracted ointment was monitored with the use of atomic absorption.

Series [3] deals with jellyfish Rhopilema nomadica nematocysts. The experiment in a line: Inhibition of nematocyst discharge into human skin samples (immunohistochemical analysis). It counts as cell-based. The settings on record: human skin sections, 10 seconds contact with jellyfish tentacles. The method, then: Normal human skin was obtained from neonatal elective circumcision. The skin was immediately placed into sterile phosphate buffered saline (PBS) containing antibiotic/antimycotic. The tissue was frozen and embedded in Tissue-TekTM. It was then sectioned into 50 μm sections using a cryostat. The sections were attached to superfrost/plus microscope slide (Fisherbrand) and maintained at […] until time of use. All sections were examined to ensure that they were perpendicular to the plane of the epidermis, exposing cross-sections of epidiermis, dermis and sub-cutaneos tissue.
For immunoassay tests to detect cnidaria stinging level of human skin, a polyclonal antibody specific for nematocyst toxin was prepared, as described in Lotan et al (1996).
Briefly, the HPLC fraction containing the toxin phospholipase A2 from the jellyfish Rhopilema nomadica was isolated and injected into rabbits as described in Vaitukaitis, pp. 46–52, “Immunochemical Techniques, Part B,” in Methods in enzymology, vol. 73, ed. Larson & Vunkis (academic Press, New York, 1981). Serum was collected from the rabbits after two injections, and the presence of antibody against the jellyfish toxin was examined on immunoblots.
The slides prepared and frozen as described above were thawed at room temperature. The slides were submersed in sea water and then attached to jellyfish or sea anemone tentacles for 10 seconds. The tentacles were detached, the slide washed with PBS, and blocked using 5% Fetal Bovine Serum, and 0.1% Triton X100 in PBS (blocking solution). All washing incubation steps were conducted on a tilting shaker at room temperature. The slides were incubated at 10 ml of block solution containing a 1:2, 500 dilution of the anti-toxin antibody for one hour. After incubation, the slide were washed five times for five minutes each wash with 100 mL of 0.1% TritonX100 in PBS (Wash solution). […]
Twelve sections of human skin samples were tested in each experiment. […] The number of nematocysts that penetrated the skin was determined using immunohistochemical analysis.

In series [4] the test system is nematocyte batteries in the oral arms of Pelagia nociluca. The settings on record: applied through a gelatin probe; cited from earlier work.
The subject of series [5] is isolated nematocyst capsules. The conditions noted are these: 50 mM CaCl2; cited from earlier work.

On to `[Cl][La]([Cl])[Cl]` [LaCl3, Lanthanum Chloride], for which, in series [1], the “effect on nematocyst discharge” value is “inactivates nematocyst discharge”. Besides, the “LaCl3 retained in the ointment” value in series [2] (ointment containing 50 mM LaCl3, 30 minutes water submersion) is 90%. Moreover, in series [2] (ointment containing 50 mM LaCl3, 60 minutes water submersion), the “Lanthanum remaining in the ointment” value amounted to 77%. The “LaCl3 left in the ointment” value in series [2] (ointment containing 50 mM LaCl3, 120 minutes water submersion) worked out at 70%. In addition, the “inhibition of nematocyst penetration” value in series [3] (2 mM LaCl3 in ointment) was 44%. Besides, the “reduction in the sting” value in series [3] (5 mM LaCl3 in ointment) turned out to be 76%. In addition, the “reduction of the sting” value in series [3] (50 mM LaCl3 in lotion) is reported as 92%.

For `[Gd+3]` [Gd^+3], the “effect on discharge of nematocyte batteries” value in series [4] was “prevents discharge”.

In the case of `[Ca+2].[Cl-].[Cl-]` [CaCl2], the “discharge of isolated nematocyst capsules” value in series [5] is “do not discharge”.

With `[Cl-].[Cl-].[Co+2]` [CoCl2, reference compound], the “effect on nematocyst discharge” value in series [1] was “inactivates nematocyst discharge”.

(Values after US7081247B2, “Composition and method for inhibiting polar capsule discharge and protecting a subject from nematocyst sting” (priority 2002, dated 2006).)
